In patent publication US20190002492A1, “DERIVATIVES OF ALLOPR[…] OF EPIALLOPR[…] USES THEREOF FOR TREATING A NEUROPATHOLOGICAL CONDITION” (UNIVERSITE DE STRASBOURG, priority 2011, published 2019):
Entries after “also recorded” stand apart in the source; their conditions may differ. Structures can show the parent of a compound that is named as a salt.

What was measured:
Sprague-Dawley rats [1] = assay: Acetone test of thermal allodynia to cold, painful neuropathy caused by vincristine; assay type: in vivo, rat
Source text: (§1) Adult male Sprague-Dawley rats weighing between 250 and 300 g were used. They came from the company Janvier (le Genest St. Isle, France). The care and handling of the animals were done in accordance with the guidelines from the Council of the European Community (86/609/EC) and in accordance with the ethical rules of the International Association for the Study of Pain. The protocol used to carry out the in vivo studies was subject to examination and authorization granted to Prof. Mensah-Nyagan's team by the Alsatian Department of the Veterinary Public Health Guide for the Care and Use of Laboratory Animals (Approval number 67-186). The rats were housed under standard conditions with a photoperiod of 12 h day/12 h night, with unlimited food and water. The animals spent one acclimatization week before being integrated into the experimental protocols. Each animal was examined daily to detect any signs of deterioration of its health condition, such as dramatic weight loss, a decrease in appetite during chemotherapy and pharmacological treatment.
(§2) Vincristine sulfate (VINC), purchased from Sigma-Aldrich (St. Louis, Mo., USA), was dissolved in a physiological saline solution (NaCl 0.9%) at 0.1 mg/ml and stored at 4° C. The saline solution (NaCl 0.9%) is used as excipient. The VINC is injected daily by intraperitoneal injection (i.p.), in 2 cycles of 5 days separated by 2 days off, at a concentration of 0.1 mg/kg/day. The control animals were injected by i.p. (1 ml/kg) with the excipient using a similar protocol.
(§3) The allopregnanolone in the derivatives according to the invention (BR053 and BR297) were diluted in a hydroxypropylcellulose (HPC) solution (0.3%) used as excipient. The curative treatment with allopregnanolone, BR053 or BR297 began 3 days after the vincristine cycles. Each of these compounds (allopregnanolone, BR053 or BR297) was administered by the intraperitoneal route at a dose of 4 mg/kg at a rate of one injection every 2 days. Thus, over the total duration of the in vivo experiments (14 days), each animal received 7 injections of excipient, allopregnanolone, BR053 or BR297, based on its group, at a dose of 4 mg/kg. The animals were sacrificed 24 hours after the last behavioral test (28th day) to remove tissues that will be used for later histology and electrophysiology studies.
The thermal nociceptive sensitivity threshold to cold was measured in rats placed in individual Plexiglas boxes (30×30×25 cm) mounted on a raised mesh support so as to allow access to the sole of the animal's foot. […] Six measurements (3 per foot) were performed with a latency of 5 minutes between each stimulation. The average latency for withdrawal of the feet (in seconds) was calculated by averaging 6 measurements at each studied point in time. […]

Sprague-Dawley rats [2] = assay: Von Frey filament test, painful neuropathy caused by vincristine; assay type: in vivo, rat
Source text: as §1, §2, §3
(§4) The mechanical nociceptive sensitivity threshold was evaluated in rats placed in individual Plexiglas boxes (30×30×25 cm) mounted on a raised mesh support thereby allowing access to the surface or arch of the back feet. The presence of allodynia (exaggerated response following a normally […] stimulation) was measured using a series of calibrated von Frey filaments (1, 2, 4, 6, 8, 10, 15, 26, 100, 180 and 300 g; Stoelting, Wood Dale, Ill., USA), which were applied on the sole of the back foot of the animal with increasing force until the filament twisted. The filament was applied for a period of 1 to 2 seconds and the procedure was repeated 5 times at 4-5 second intervals. The withdrawal threshold of the foot was calculated by taking the average of […] repeated stimuli (in grams) that caused a reflex to withdraw the foot. Only vigorous and fast withdrawals of the foot were considered positive. In the experiments, the naïve animals never responded to the 4 g filament and responded 25-30% of the time to the 15 g filament.

[3] = test system: SH-SY5Y human neuroblastomas; assay: MTT assay of cell viability and density: effect on cell proliferation; assay type: cell-based; parameters: key to Effect on cell proliferation (neural proliferative effect): −: no effect; +: low effect; ++: high effect; +++: very high effect; details: SH-SY5Y cultures
Description: (§5) The cellular model used to carry out the in vitro experiments is a line of human neuroblastomas called line SH-SY5Y.
(§6) The human neuroblastoma is a cultivated at 37° C. in a humidity saturated atmosphere, under 5% CO2 in a culture medium formed by DMEM with an added 10% (v/v) fetal calf serum, 5% (v/v) horse serum, 2 mM glutamax and 1% (v/v) of the penicillin/streptomycin mixture.
The cellular viability and the density (or number of SH-SY5Y cells/cm^2) were determined using the MTT reduction assay. The MTT technique is a colorimetric test that measures the reduction of the tetrazolium salt (3-[4,5-dimethylthiazol-2-yl]-2,5-diphenyl tetrazolium bromide) in formazan by the succinate dehydrogenase present in the mitochondria of the living cells. The formazan forms blue crystals. Thus, after solubilization of the crystals, the measurement of the absorbance at 595 nm makes it possible to obtain absorbency values directly proportional to the number of viable cells and the cell density in the culture boxes.
The effects of derivatives BR053, BR338, BR297 and BR351 on cell proliferation were evaluated by comparing the number of viable cells and the cell density in the control culture boxes, treated only with the culture medium described in paragraph A1 above, and the culture boxes exposed to the culture medium with the added BR053, BR338, BR297 or BR351 derivatives.

[4] = test system: type A GABA channel receptors (GABAa-R); assay: Whole-cell patch-clamp, effect on GABA-induced ionic current; assay type: cell-based, human; details: 0.25 μM compound, GABA 10 μM in the recording pipette; for Effect on the type A GABA receptor channel or GABAa-R: whole cell patch-clamp
Description: The studies were conducted using an electrophysiological approach. The activity of the cells was recorded using the patch-clamp technique in its so-called whole cell configuration. The mediums used for the recordings have the following composition (in mM): NaCl ([…]), KCl (2), CaCl2 (1), MgCl2 (2), HEPES (10) for the medium bathing the cells and NaCl (132), KCl (2), CaCl2 (1), MgCl2 (2), TEA (15), HEPES (10) for the recording pipette, the pH was adjusted in both cases to 7.4 with NaOH. The GABA 10 μM was added into the recording pipette.
After producing a “gigaseal” (Planar patch clamp) between the cellular membrane and the tip of a pipette with an electrical resistance comprised between 4 and 7 MO, the ionic currents were measured using a patch-clamp amplifier (Axopatch B200, Axon Instruments, CA). The acquisition of the signal (acquisition frequency of 10 kHz) was done using an interface card (Digidata 1322A, Axon Instruments, CA) and the pClamp 8 software (Axons Instruments, CA).
The allopregnanolone and the BR053, BR338, BR297 and BR351 derivatives were solubilized in pure ethanol before being diluted in the medium to the desired concentration. The dilution factor was at least equal to 2×10^4, which makes the final concentration of ethanol in the recording solution remain below […] (a concentration not affecting the activity of the GABAa receptor).
Depending on the experiments, the allopregnanolone or the BR053, BR338, BR297 or BR351 derivatives, at the concentration of 0.25 μM, were either added in the recording pipette at the same time as the GABA, or applied to the cell by perfusion.
The application was done by gravity through a multi-path perfusion system made up of glass tubes each having an inner diameter of 1 mm. The selected path was placed across from the recorded cell at approximately 100 μm. The solution was changed by calibrated rotation of the tubes using a stepping motor thus placing the new selected path across from the cell. Synchronously with that rotation, the solenoid valve controlling the flow of the selected path was also opened and the preceding one closed.

[5] = test system: SH-SY5Y human neuroblastomas; assay: Neuroprotection against cell death caused by oxidizing stress (H2O2), MTT readout; assay type: cell-based; parameters: key to Neuroprotective effect against cell death caused by oxidizing stress: −: no effect; +: low effect; ++: high effect; +++: very high effect; details: H2O2 1 mM; for Neuroprotective effect against cell death caused by oxidizing stress: SH-SY5Y cultures, 24 or 48 hours, MTT; for Protection of human neuroblastomas from cell death caused by H2O2 (in words): SH-SY5Y
Description: as §5, §6
The human neuroblastomas were incubated with the culture medium alone or containing the chief inducing agent of oxidizing stress, hydrogen peroxide (H2O2), at various concentrations in order to determine the concentrations of H2O2 and the incubation times causing the death of a significant percentage of the cells. The neuroprotective properties of the BR053, BR338, BR297 and BR351 derivatives were determined by pretreating the SH-SY5Y cells with the culture medium alone or respectively containing the BR053, BR338, BR297 or BR351 derivative. After pretreatment, each of these categories of cells was integrated for 24 hours or 48 hours with the following solutions: (i) culture medium; (ii) culture medium containing only the BR053, BR338, BR297 or BR351 derivative; (iii) culture medium containing only H2O2 at a concentration of 1 mM, which causes a high percentage of cell death; (iv) culture medium containing both H2O2 (1 mM) and one of the BR053, BR338, BR297 or BR351 derivatives.
10 μl of a stock solution of tetrazolium, abbreviated MTT, at 3.6 mM was added in each well and the incubation continued in darkness for 5 h at 37° C. After cell lysis, spectrophotometer measurements at 595 nm were carried out to determine the survival and cell density under each of the conditions described above.

Sprague-Dawley rats [6] = assay: Von Frey mechanical nociceptive sensitivity threshold in healthy animals not treated with vincristine; assay type: in vivo, rat; details: 4 mg/kg every 2 days for 2 weeks
Source text: as §1, §3
as §4, with “In the experiments, the naïve animals never responded to the 4 g filament and responded 25-30% of the time to the 15 g filament.” left out

[7] = rats with vincristine neuropathy, 4 mg/kg i.p. every 2 days for 2 weeks

SMILES | Latency for withdrawal of the foot, acetone test (Sprague-Dawley rats [1]; rats after vincristine chemotherapy, 20 seconds before) [s] | Von Frey filament that causes more than 70% of responses (Sprague-Dawley rats [2]; rats after vincristine 0.1 mg/kg/day i.p., 2 cycles of 5 days, 80 g before treatment) [g] | Responses to the 15 g filament (mechanical hyperalgesia) (Sprague-Dawley rats [2]; rats after vincristine chemotherapy, 30% before) [%] | Responses to the 4 g filament (mechanical allodynia) (Sprague-Dawley rats [2]; rats after vincristine chemotherapy, no response before treatment) | Effect on cell proliferation (neural proliferative effect) [3] | Effect on the proliferation of human neuroblastomas (in words) [3] | Effect on the type A GABA receptor channel or GABAa-R [4] | Neuroprotective effect against cell death caused by oxidizing stress [5] | Protection of human neuroblastomas from cell death caused by H2O2 (in words) [5] | Time until desensitization of the GABAa-R channel [4] [min] | Anti-nociceptive effect in healthy animals (Sprague-Dawley rats [6]) | Mechanical nociceptive sensitivity threshold after treatment (Sprague-Dawley rats [6]; 80 g before) [g] | Effect on thermal allodynia to cold (Sprague-Dawley rats [1]; [7]) | Effect on mechanical allodynia and mechanical hyperalgesia (Sprague-Dawley rats [2]; [7]) | Effect on the type A GABA receptor channel or GABAa-R ([4]; listed as allopregnanolone)
CC[C@]1(O)C[C@H]2CN(CCc3c([nH]c4ccccc34)[C@@](C(=O)OC)(c3cc4c(cc3OC)N(C=O)[C@H]3[C@@](O)(C(=O)OC)[C@H](OC(C)=O)[C@]5(CC)C=CCN6CC[C@]43[C@@H]65)C2)C1 [vincristine, Vincristine sulfate] | 11 | 20 | ~70 | more than 30% |  |  |  |  |  |  |  |  |  |  | 
CC(=O)[C@H]1CCC2C3CC[C@H]4C[C@H](O)CC[C@]4(C)C3CC(=O)[C@@]21C (stereo partly drawn) [BR338] |  |  |  |  | ++ | high effectiveness | Positive allosteric effect | + | capable of protecting human neuroblastomas from the cell death |  |  |  |  |  | 
C=CCO[C@@H]1CC[C@]2(C)C3CC[C@@]4(C)C(CC[C@@H]4C(C)=O)C3CC[C@H]2C1 (stereo partly drawn) [BR351] |  |  |  |  | +++ | very high effectiveness | only temporarily reproduces the positive allosteric effect; also recorded: Temporary positive allosteric | +++ | capable of protecting human neuroblastomas from the cell death | 1 |  |  |  |  | 
CC(=O)[C@H]1CCC2C3CC[C@H]4C[C@H](O)CC[C@]4(C)C3CC[C@@]21C (stereo partly drawn) [Allopregnanolone, reference compound] |  |  |  |  |  |  | Positive allosteric effect |  |  |  | significant anti-nociceptive effect | 200 | eliminates the symptoms | eliminates the symptoms | positive allosteric effect
